{
  "source": "patent US20070196463A1",
  "about": "“Enteric Soft Gelatin Capsule Containing Esomerpazole And Method Of Preparation” (Natco Pharma Limited, priority 2004, published 2007)",
  "origin": "cited, not measured here",
  "data": [
    {"smiles": "COc1ccc2nc([S@@+]([O-])Cc3ncc(C)c(OC)c3C)[nH]c2c1", "note": "[esomeprazole]", "values": [
      {"measurement": "activity of the enantiomer in human testing", "setting": "human testing of enantiomers of omeprazole", "value": "more active"},
      {"measurement": "inter-individual variability", "setting": "human, due to more consistent pharmacokinetics", "value": "reduced"}
    ]}
  ]
}
